From publication PMC8111002 (Communications Biology, 2021)
pIC50, pKd: −log10 of the molar value. Square brackets hold non-standard residues; d marks the D form. Ends that are not written are not given here. Peptide text beside a SMILES is read from it. βAla = NCCC(=O)O

Columns and labels:
Stx2a A-subunit = Stx2a A-subunit (Escherichia phage 933W, UniProt P09385); assay: biochemical; assay type: binding, Escherichia coli
Stx1a A-subunit = Stx1a A-subunit (Enterobacteria phage H19B, UniProt P08026); assay: biochemical; assay type: binding, Escherichia coli
Stx1a = Stx1a (UniProt P08026+P69178); assay: cell-based; parameters: species or system Escherichia coli
Stx2a = Stx2a (Escherichia phage 933W, UniProt P09385+P09386); assay: cell-based; parameters: species or system Escherichia coli
A-subunit = assay type: binding, Escherichia coli
EHEC = details: mouse, in vivo; cited from earlier work
[1] = biological target: B-subunits of Stx1a and Stx2a; details: cited from earlier work

## CSCC[C@H](NC(=O)[C@H](C)NC(=O)[C@@H](N)CCSC)C(=O)N[C@@H](CCSC)C(=O)NCCC(=O)N[C@@H](CCCNC(=N)N)C(=O)N[C@@H](CCCNC(=N)N)C(=O)N[C@@H](CCCNC(=N)N)C(=O)N[C@@H](CCCNC(=N)N)C(=O)N[C@@H](C)C(N)=O [MMβA-mono] (H-MAMM[βAla]RRRRA-NH2)
Stx2a A-subunit
  pKd: 7.30
Stx1a A-subunit
  pKd: 7.49
Stx1a
  pIC50: 4.23
Stx2a
  pIC50: 5.02

## Arg-Arg-Arg-Arg (RRRR)
A-subunit
  inhibition of the binding between MMβA-mono and the A-subunit: efficiently inhibited

## Arg-Arg-Arg-Arg-Ala (RRRRA)
A-subunit
  inhibition of the binding between MMβA-mono and the A-subunit: efficiently inhibited

## MMARRRR [MMA-tet]
EHEC
  inhibitory effects against the lethality in EHEC infected mice: potent inhibitory effects

## Galα[1-4]-Galβ[1-4]-Glcβ- [free trisaccharide]
[1]
  Kd: mM order

## ARRRRA
A-subunit
  inhibition of the binding between MMβA-mono and the A-subunit: efficiently inhibited
